Test system: androgen receptor (androgen-induced PSA-luciferase activity in LNCaP cells)
Experiment: Androgen-induced PSA (6.1 kb)-luciferase reporter assay in LNCaP cells
Assay type: cell-based
Details: Homo sapiens; LNCaP cells transiently transfected with PSA (6.1 kb)-luciferase reporter; R1881 (1 nM), 24 h; normalized to maximum androgen-induced activity (vehicle only)
Method: To determine the IC50, treatments were normalized to the maximum activity with androgen-induction (in the absence of test compounds, vehicle only) (Table 1).
Luciferase Assay: Lysates were thawed on ice then collected into V-bottom 96-well tissue culture plates. Lysates were centrifuged at 4° C. for 5 minutes at 4000 rpm. To measure luminescence of LNCaP cell lysates the Firefly Luciferase Assay System (Promega) was employed, according to manufacturer's protocol.
Comparisons between treatment and control groups were compared using Two-Way ANOVA with post-hoc Dunnett's and Tukey's tests. Differences were considered statistically significant at P values less than 0.05. Densitometric quantification of relative AR levels was determined by Image.

Compound: C[C@H](Oc1ccc(C(C)(C)c2cc(Cl)c(OCCCl)c(C#N)c2)cc1)c1ccnc(NS(C)(=O)=O)n1 [Example A170]
- IC50: 651 nM

From patent US20230078913A1, “ANDROGEN RECEPTOR MODULATORS AND METHODS FOR USE AS PROTEOLYSIS TARGETING CHIMERA LIGANDS” (ESSA Pharma, Inc., priority 2019, published 2023)
